Patent publication US6821994B2, “Carboxylic acid derivative and a pharmaceutical composition containing the derivative as active ingredient” (Ono Pharmaceutical Co., Ltd., priority 1998, dated 2004)

Key:
human PPARα = target: T1, human PPARα (Homo sapiens, UniProt Q07869); test: Luciferase assay using human PPARα (Gal4-PPARα ligand binding domain chimeric receptor, CV-1 host cells); format: cell-based; conditions: PPARα agonistic activity; compound 10 μM; luciferase activity of carbacyclin (10 μM) defined as 1.0; CV-1 cells
T1 construct: expressed in transfected cells; host or cells: CV-1 cells
T1 sequence (Q07869 167-468): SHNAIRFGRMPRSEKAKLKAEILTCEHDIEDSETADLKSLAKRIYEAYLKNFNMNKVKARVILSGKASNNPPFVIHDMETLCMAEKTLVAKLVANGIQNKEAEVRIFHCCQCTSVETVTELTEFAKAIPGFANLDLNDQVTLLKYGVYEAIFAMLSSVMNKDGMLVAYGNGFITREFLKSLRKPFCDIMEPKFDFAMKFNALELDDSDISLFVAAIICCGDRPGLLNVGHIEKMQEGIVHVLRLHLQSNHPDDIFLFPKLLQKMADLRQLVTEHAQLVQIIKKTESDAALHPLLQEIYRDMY

SD rats = test: Hypocholesterolemic and hypolipidemic effects in SD rats given hypercholesterolemic food; format: in vivo; conditions: male SD rats, orally in 0.5% CMC, then hypercholesterolemic food, blood at 9:00 of the next day; for IG level: control 163 ± 18; for IC level: control 167 ± 13; for NEFA level: control 615 ± 80
From the text: Male, six-weeks old SD rats (five rats per group) were left to take milled diet and water ad libitum and were acclimatized for 1 week.
At 9:00 on the first day of the experiment (Day 0), blood sampling was done from tail vein. The rats were divided into some groups according to body weight, triglyceride (TG), non-esterified fatty acid (NEFA) and total cholesterol (TC) levels to minimize differences of the parameters among the groups. At 17:00 of the day, the compound of the present invention dissolved in 0.5% aqueous solution of carboxymethylcellulose (CMC) was orally administered, and thereafter, with hypercholesterolemic food (5.5% peanut oil, 1.5% cholesterol and 0.5% cholic acid were mixed with milled CRF-1 diet, Charles River Inc.) was given to the rats.
At 9:00 of the next day, blood sampling was done from tail vein. The lipid levels in blood (TG, NEFA and TC levels) after administration of the compounds of the present invention were measured. There was no significant difference of the food intake between the control group (provided only 0.5% CMC) and the group treated with the compounds of the present invention.

human PPARγ = target: T2, human PPARγ (Homo sapiens, UniProt P37231); test: Luciferase assay using human PPARγ (Gal4-PPARγ ligand binding domain chimeric receptor, CV-1 host cells); format: cell-based; conditions: PPARγ agonistic activity; compound 10 μM; luciferase activity of troglitazone (10 μM) defined as 1.0; CV-1 cells
T2 construct: expressed in transfected cells; host or cells: CV-1 cells
T2 sequence (P37231 204-505): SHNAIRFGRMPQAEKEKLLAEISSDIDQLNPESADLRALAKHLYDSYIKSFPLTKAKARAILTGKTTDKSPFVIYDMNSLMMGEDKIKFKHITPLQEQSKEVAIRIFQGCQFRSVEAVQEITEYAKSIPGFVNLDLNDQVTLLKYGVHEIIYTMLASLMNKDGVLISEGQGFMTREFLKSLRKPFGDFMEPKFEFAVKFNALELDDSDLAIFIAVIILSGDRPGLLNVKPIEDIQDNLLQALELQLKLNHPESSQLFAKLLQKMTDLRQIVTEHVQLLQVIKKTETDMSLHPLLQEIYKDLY

KKAy/Ta mice = test: Hypoglycemic and hypolipidemic effects in KKAy/Ta mice; format: in vivo; conditions: male KKAy/Ta mice, food mixture containing 0.03% (w/w) compound (43-47 mg/kg/day conversion value), 4 days; for TG level: control 439 ± 234; for blood sugar level: control 520 ± 147
From the text: Male, 7-weeks old KKAy/Ta mice weighed from 35 to 40 g (five mice per group) were pre-breaded for approximately one week and acclimatized for three days on milled diet. On the first day of the experiment (Day 0), mice were divided into some groups according to weight, plasma glucose and triglyceride (TG) levels to minimize the differences among groups. […] At 13:00 of the third day, blood samples were collected to measure glucose and TG levels. Additionally, there was no significant difference in the food intake between control group (milled diet only) and compounds-treated group (milled diet containing 0.03% compounds).

Cc1ccc(-c2nc(Cc3ccc(/C=C/CSCC(=O)O)o3)c(C)o2)cc1 [Example 3(1), 2-((2E)-3-(5-(5-methyl-2-(4-methylphenyl)oxazol-4-ylmethyl)furan-2-yl)-2-propenylthio)acetic acid]
Relative Activity to a positive control compound (carbacyclin = 1) (human PPARα): 1.5
IG level (SD rats): 92 ± 26 mg/dL
IC level (SD rats): 107 ± 4 mg/dL
NEFA level (SD rats): 394 ± 49 µEq/l
Relative Activity to a positive control compound (troglitazone = 1) (human PPARγ): 1.1
TG level (KKAy/Ta mice): 44 ± 11 mg/dL
blood sugar level (KKAy/Ta mice): 253 ± 27 mg/dL

Cc1oc(-c2ccc3c(c2)OCO3)nc1Cc1ccc(/C=C/CSCC(=O)O)o1 [Example 3(2), 2-((2E) -3-(5-(5-methyl-2-(1,3-dioxaindan-5-yl)oxazol-4-ylmethyl)furan-2-yl)-2-propenylthio)acetic acid]
Relative Activity to a positive control compound (carbacyclin = 1) (human PPARα): 3.1
IG level (SD rats): 62 ± 7 mg/dL
IC level (SD rats): 86 ± 6 mg/dL
NEFA level (SD rats): 145 ± 18 µEq/l
Relative Activity to a positive control compound (troglitazone = 1) (human PPARγ): 2.3
TG level (KKAy/Ta mice): 45 ± 12 mg/dL
blood sugar level (KKAy/Ta mice): 243 ± 37 mg/dL

CCc1ccc(-c2nc(Cc3ccc(/C=C/CSCC(=O)O)o3)c(C)o2)cc1 [Example 3(3), 2-((2E)-3-(5-(5-methyl-2-(4-ethylphenyl)oxazol-4-ylmethyl)furan-2-yl)-2-propenylthio)acetic acid]
Relative Activity to a positive control compound (carbacyclin = 1) (human PPARα): 1.8
IG level (SD rats): 79 ± 12 mg/dL
IC level (SD rats): 91 ± 4 mg/dL
NEFA level (SD rats): 213 ± 31 µEq/l
Relative Activity to a positive control compound (troglitazone = 1) (human PPARγ): 2.2
TG level (KKAy/Ta mice): 31 ± 15 mg/dL
blood sugar level (KKAy/Ta mice): 234 ± 31 mg/dL

Cc1oc(-c2ccccc2)nc1Cc1ccc(/C=C/CSCC(=O)O)o1 [Example 3, 2-((2E)-3-(5-(5-methyl-2-phenyloxazol-4-ylmethyl)furan-2-yl)-2-propenylthio)acetic acid]
Relative Activity to a positive control compound (carbacyclin = 1) (human PPARα): 2.6
IG level (SD rats): 73 ± 7 mg/dL
IC level (SD rats): 87 ± 5 mg/dL
NEFA level (SD rats): 207 ± 25 µEq/l
Relative Activity to a positive control compound (troglitazone = 1) (human PPARγ): 2.3
TG level (KKAy/Ta mice): 43 ± 12 mg/dL
blood sugar level (KKAy/Ta mice): 260 ± 37 mg/dL
